From ChEMBL document CHEMBL5576134, “Targeting Pancreatic Cancer with Novel Nicolaioidesin C Derivatives: Molecular Mechanism, In Vitro, and In Vivo Evaluations” (J Med Chem, 2024)
The source made the active and inactive calls. No cut-off for these calls is given here.

Experiments:
[1] = Modulation of PI3K/AKT/mTOR signalling pathway in human MIA PaCa-2 cells in DMEM medium assessed as decrease in Akt phosphorylation at 5 uM measured for 6 hrs by Western blot analysis; type: cell-based; details: filed as modulator
[2] = tested on: MIA PaCa-2; assay: Preferential cytotoxicity against human MIA PaCa-2 cells in nutrient-deprived medium measured after 24 hrs by WST-8 cell counting analysis; type: functional
[3] = tested on: MIA PaCa-2; assay: Preferential cytotoxicity against human MIA PaCa-2 cells in DMEM measured after 24 hrs by WST-8 cell counting analysis; type: functional, cell-based; details: MIA PaCa-2, 24 h
[4] = Selectivity index, ratio of IC50 for preferential cytotoxicity against human MIA PaCa-2 cells in DMEM to PC50 for preferential cytotoxicity against human MIA PaCa-2 cells in nutrient-deprived medium; type: functional
[5] = tested on: PANC-1; assay: Preferential cytotoxicity against human PANC-1 cells in nutrient-deprived medium measured after 24 hrs by WST-8 cell counting analysis; type: functional
[6] = tested on: PANC-1; assay: Preferential cytotoxicity against human PANC-1 cells in DMEM measured after 24 hrs by WST-8 cell counting analysis; type: functional, cell-based; details: PANC-1, 24 h
[7] = Selectivity index, ratio of IC50 for preferential cytotoxicity against human PANC-1 cells in DMEM to PC50 for preferential cytotoxicity against human PANC-1 cells in nutrient-deprived medium; type: functional
[8] = tested on: MIA PaCa-2; assay: Preferential cytotoxicity against human MIA PaCa-2 cells in nutrient-deprived medium assessed as alteration in cell morphology by fluorescence intensity measured after 24 hrs by acridine orange and ethidium bromide dual fluorescent staining based microscopic analysis; type: functional; details: dose 0.5-1 µM
[9] = tested on: MIA PaCa-2; assay: Preferential cytotoxicity against human MIA PaCa-2 cells in nutrient-deprived medium assessed as alteration in cell morphology by measuring membrane blebbing at 0.5 to 1 uM measured after 24 hrs by acridine orange and ethidium bromide dual fluorescent staining based microscopic analysis; type: functional; details: dose 0.5-1 µM
[10] = tested on: MIA PaCa-2; assay: Preferential cytotoxicity against human MIA PaCa-2 cells in nutrient-deprived medium assessed as alteration in cell morphology by measuring membrane leakage at 0.5 to 1 uM measured after 24 hrs by acridine orange and ethidium bromide dual fluorescent staining based microscopic analysis; type: functional; details: dose 0.5-1 µM
[11] = tested on: MIA PaCa-2; assay: Antimetastatic activity in human MIA PaCa-2 cells in DMEM media assessed as inhibition of cell migration at 10 uM incubated for 18 hrs relative to control (reference value: 64%); type: functional
[12] = tested on: MIA PaCa-2; assay: Antimetastatic activity in human MIA PaCa-2 cells in DMEM media assessed as inhibition of cell migration at 10 uM incubated for 36 hrs relative to control (reference value: 30%); type: functional
[13] = tested on: MIA PaCa-2; assay: Antimetastatic activity in human MIA PaCa-2 cells in DMEM media assessed as reduction in colony area at 5 uM incubated for 24 hrs by crystal violet staining-based assay (reference value: 37%); type: functional; set-up: scale not given: the % may be the effect or the level left
[14] = tested on: MIA PaCa-2; assay: Antimetastatic activity in human MIA PaCa-2 cells in DMEM media assessed as reduction in colony area at 10 uM incubated for 24 hrs by crystal violet staining-based assay; type: functional; set-up: scale not given: the % may be the effect or the level left
[15] = tested on: MIA PaCa-2; assay: Induction of endoplasmic reticulum (ER) stress in human MIA PaCa-2 cells assessed as reduction in GRP78 expression at 5 uM measured after 6 hrs by Western blot analysis; type: functional, cell-based
[16] = tested on: MIA PaCa-2; assay: Induction of endoplasmic reticulum (ER) stress in human MIA PaCa-2 cells assessed as change in TRB3 level at 5 uM measured after 6 hrs by Western blot analysis; type: functional, cell-based
[17] = Modulation of PI3K/AKT/mTOR signalling pathway in human MIA PaCa-2 cells in DMEM medium assessed as downregulation of AKT expression at 1 to 5 uM incubated for 24 hrs in presence of gemcitabine by Western blot analysis; type: cell-based; details: filed as modulator, dose 1-5 µM
[18] = Modulation of PI3K/AKT/mTOR signalling pathway in human MIA PaCa-2 cells in DMEM medium assessed as downregulation of AKT expression incubated for 24 hrs in presence of gemcitabine by Western blot analysis; type: cell-based; details: filed as modulator, dose 1-5 µM
[19] = tested on: MIA PaCa-2; assay: Antitumor activity against human MIA PaCa-2 cells xenografted in BALB/c/Nu/Nu mouse assessed as tumor volume at 20 mg/kg, ip administered 5 times a week for 4 weeks and measured on day 32 (reference value: 1417 mm3); type: functional; details: time 32 day
[20] = tested on: MIA PaCa-2; assay: Antitumor activity against human MIA PaCa-2 cells xenografted in BALB/c/Nu/Nu mouse assessed as reduction in tumor volume at 20 mg/kg, ip administered 5 times a week for 4 weeks and measured on day 16; type: functional, organism-based; details: time 16.0 day
[21] = tested on: MIA PaCa-2; assay: Antitumor activity against human MIA PaCa-2 cells xenografted in BALB/c/Nu/Nu mouse assessed as tumor volume at 60 mg/kg, ip administered 5 times a week for 4 weeks and measured on day 32 in presence of gemcitabine (reference value: 1417 mm3); type: functional; details: time 32 day
[22] = tested on: MIA PaCa-2; assay: Antitumor activity against human MIA PaCa-2 cells xenografted in BALB/c/Nu/Nu mouse assessed as reduction in final tumor weight at 20 mg/kg, ip administered 5 times a week for 4 weeks (reference value: […]); type: functional
[23] = tested on: MIA PaCa-2; assay: Antitumor activity against human MIA PaCa-2 cells xenografted in BALB/c/Nu/Nu mouse assessed as reduction in final tumor weight at 60 mg/kg, ip administered 5 times a week for 4 weeks in presence of gemcitabine (reference value: […]); type: functional
[24] = tested on: Mus musculus; assay: In-vivo modulation of PI3K/AKT/mTOR signalling pathway in human MIA PaCa-2 cells xenografted in BALB/c/Nu/Nu mouse assessed as downregulation of Akt phosphorylation at 60 mg/kg, ip administered 5 times a week for 4 weeks in presence of gemcitabine by Western blot analysis; type: functional, organism-based
[25] = tested on: Mus musculus; assay: In-vivo modulation of PI3K/AKT/mTOR signalling pathway in human MIA PaCa-2 cells xenografted in BALB/c/Nu/Nu mouse assessed as downregulation of mTOR phosphorylation at 60 mg/kg, ip administered 5 times a week for 4 weeks in presence of gemcitabine by Western blot analysis; type: functional, organism-based
[26] = tested on: Mus musculus; assay: In-vivo modulation of PI3K/AKT/mTOR signalling pathway in human MIA PaCa-2 cells xenografted in BALB/c/Nu/Nu mouse assessed as downregulation of TRB3 level at 60 mg/kg, ip administered 5 times a week for 4 weeks in presence of gemcitabine by Western blot analysis; type: functional, organism-based
[27] = tested on: MIA PaCa-2; assay: Antitumor activity against human MIA PaCa-2 cells xenografted in BALB/c/Nu/Nu mouse assessed as reduction in tumor cell density at 60 mg/kg, ip administered 5 times a week for 4 weeks by H and E staining based analysis; type: functional, organism-based
[28] = tested on: MIA PaCa-2; assay: Synergistic antitumor activity against human MIA PaCa-2 cells xenografted in BALB/c/Nu/Nu mouse assessed as increase in pleomorphism at 60 mg/kg, ip administered 5 times a week for 4 weeks by H and E staining based analysis; type: functional, organism-based
[29] = tested on: MIA PaCa-2; assay: Induction of endoplasmic reticulum (ER) stress in human MIA PaCa-2 cells xenografted in BALB/c/Nu/Nu mouse assessed as downregulation of GRP78 expression in presence of gemcitabine by immunohistochemistry analysis; type: functional, cell-based

CC(C)=CCCC1=CC[C@H](C(=O)c2c(O)cccc2O)[C@@H](c2cccc(F)c2F)C1 (relative stereo)
Activity [1]: Active
PC50 [2]: 0.34 µM
IC50 [3]: 60.2 µM
Selectivity Index [4]: 176
PC50 [5]: 0.23 µM
IC50 [6]: 9.2 µM
Selectivity Index [7]: 40.8
Activity [8]: Dose-Dependent Effect
Activity [9]: Active
Activity [10]: Active
inhibition at 10 µM [11]: 92%
inhibition at 10 µM [12]: 77%
Activity [13]: 14%
Activity [14]: 91%
Activity [15]: Active
Activity [16]: Active
Activity [17]: Active
Activity [18]: Dose-Dependent Effect
Activity [19]: 879 mm3
Activity [20]: Active
Activity [21]: 528 mm3
Activity [22]: 321 mg
Activity [23]: 139 mg
Activity [24]: Active
Activity [25]: Active
Activity [26]: Active
Activity [27]: Active
Activity [28]: Active
Activity [29]: Active
